Source: patent US20090062294A1, “HETEROARYL-SUBSTITUTED UREA MODULATORS OF FATTY ACID AMIDE HYDROLASE” (priority 2007, published 2009)
Counter-ions that a name gives are not always drawn.

Tests used:
rat FAAH = target: T1, rat FAAH (Rattus norvegicus, UniProt P97612); assay: Assay Method 2: FAAH assay, 3H-anandamide hydrolysis in homogenate of SK-N-MC cells transfected with rat FAAH; assay type: biochemical; conditions: average of results, > = solubility limit or highest concentration tested
T1 sequence (P97612 1-579): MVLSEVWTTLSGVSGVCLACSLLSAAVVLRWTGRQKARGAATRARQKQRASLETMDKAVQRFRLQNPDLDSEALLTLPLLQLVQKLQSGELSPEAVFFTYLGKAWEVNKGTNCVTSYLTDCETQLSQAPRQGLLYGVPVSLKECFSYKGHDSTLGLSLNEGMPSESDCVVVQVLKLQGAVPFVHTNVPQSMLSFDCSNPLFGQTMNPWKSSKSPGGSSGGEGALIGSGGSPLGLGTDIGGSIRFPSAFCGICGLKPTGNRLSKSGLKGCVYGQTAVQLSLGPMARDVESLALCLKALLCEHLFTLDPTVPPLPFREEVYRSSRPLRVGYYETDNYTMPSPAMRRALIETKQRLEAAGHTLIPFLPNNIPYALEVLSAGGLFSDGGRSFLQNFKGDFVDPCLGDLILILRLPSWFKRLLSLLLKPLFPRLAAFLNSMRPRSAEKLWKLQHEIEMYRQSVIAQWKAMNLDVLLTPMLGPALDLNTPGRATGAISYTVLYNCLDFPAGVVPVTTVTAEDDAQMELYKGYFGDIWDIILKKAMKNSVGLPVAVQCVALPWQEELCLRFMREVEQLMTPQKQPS
Method in brief: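 Read-out is scintillation counting of [3H]-ethanolamine passing through activated charcoal, after 1 h at rt with 80 nM final [3H]-AEA. Enzyme source: lysate of G418-selected SK-N-MC clones expressing rat FAAH, homogenized in Tris/EDTA/glycerol/0.02% Triton buffer, pH 9.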

FAAH = target: T2, FAAH (Homo sapiens, UniProt O00519); assay: Assay Method 1: FAAH assay, 3H-anandamide hydrolysis in homogenate of T84 cells or SK-N-MC cells transfected with human FAAH; assay type: biochemical; conditions: average of results, > = solubility limit or highest concentration tested
T2 sequence (O00519 1-579): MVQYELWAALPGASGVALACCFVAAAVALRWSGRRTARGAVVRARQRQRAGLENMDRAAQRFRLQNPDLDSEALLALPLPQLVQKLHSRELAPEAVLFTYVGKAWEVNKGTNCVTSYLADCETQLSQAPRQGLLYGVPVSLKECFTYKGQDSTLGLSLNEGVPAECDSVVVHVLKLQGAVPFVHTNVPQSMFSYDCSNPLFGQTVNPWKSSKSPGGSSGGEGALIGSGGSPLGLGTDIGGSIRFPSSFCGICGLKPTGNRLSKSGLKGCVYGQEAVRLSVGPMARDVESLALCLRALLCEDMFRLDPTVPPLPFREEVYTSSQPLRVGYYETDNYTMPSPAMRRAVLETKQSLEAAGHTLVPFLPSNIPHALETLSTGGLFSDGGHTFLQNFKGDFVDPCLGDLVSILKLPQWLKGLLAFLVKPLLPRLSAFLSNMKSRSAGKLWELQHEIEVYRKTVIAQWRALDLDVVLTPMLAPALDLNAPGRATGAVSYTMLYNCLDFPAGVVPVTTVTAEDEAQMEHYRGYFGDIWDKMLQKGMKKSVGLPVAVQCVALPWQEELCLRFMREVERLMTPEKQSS
Method in brief: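 Hydrolysis of ^3H-anandamide (80 nM final, added last) was measured over 1 h at rt, using test compound with homogenate of T84 cells or human FAAH-transfected SK-N-MC cells. The homogenization buffer was 125 mM Tris, 1 mM EDTA, 0.02% Triton X-100, pH 9. Unbound labelled ethanolamine was passed through charcoal filters and scintillation-counted.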

| IC50 (rat FAAH) [nM] | IC50 (FAAH) [nM] | SMILES |
| --- | --- | --- |
| 50 | 9 | O=C(Nc1cnccn1)N1CCN(Cc2cccc(Oc3cccc(OC(F)(F)F)c3)c2)CC1 [Example 242, N-Pyrazin-2-yl-4-{3-[3-(trifluoromethoxy)phenoxy]benzyl}piperazine-1-carboxamide] |
| 600 | 610 | O=C(Nc1nn[nH]n1)N1CCN(Cc2cccc(Oc3ccc(F)c(F)c3)c2)CC1 [Example 169, 4-[3-(3,4-Difluorophenoxy)benzyl]-N-1H-tetrazol-5-ylpiperazine-1-carboxamide] |
| 1600 | 5000 | O=C(Nc1nn[nH]n1)N1CCN(Cc2cccc(Oc3ccccc3)c2)CC1 [Example 181, 4-(3-Phenoxy-benzyl)-piperazine-1-carboxylic acid (2H-tetrazol-5-yl)-amide] |
| 8000 | 300 | N#Cc1ccc(Oc2cccc(CN3CCN(C(=O)Nc4cnccn4)CC3)c2)cc1C(F)(F)F [Example 236, 4-{3-[4-Cyano-3-(trifluoromethyl)phenoxy]benzyl}-N-Pyrazin-2-ylpiperazine-1-carboxamide] |
| 6000 | 700 | O=C(Nc1cnccn1)N1CCN(Cc2ccc3ccccc3n2)CC1 [Example 239, N-Pyrazin-2-yl-4-(quinolin-2-ylmethyl)piperazine-1-carboxamide] |
| 1600 | 6000 | O=C(Nc1cccnn1)N1CCN(Cc2ccc3c(c2)OC(F)(F)O3)CC1 [Example 196, 4-[(2,2-Difluoro-1,3-benzodioxol-5-yl)methyl]-N-pyridazin-3-ylpiperazine-1-carboxamide] |
| 30 | 5 | O=C(Nc1cnccn1)N1CCN(Cc2cccc(Oc3ccc4c(c3)OC(F)(F)O4)c2)CC1 [Example 237, 4-{3-[(2,2-Difluoro-1,3-benzodioxol-5-yl)oxy]benzyl}-N-pyrazin-2-ylpiperazine-1-carboxamide] |
| 160 | 4 | O=C(Nc1ccon1)N1CCN(Cc2cccc(Oc3ccc(C(F)(F)F)cc3)c2)CC1 [Example 161, N-isoxazol-3-yl-4-{3-[4-(trifluoromethyl)phenoxy]benzyl}piperazine-1-carboxamide] |
| 5000 | 330 | N#Cc1ccc(Oc2cccc(CN3CCN(C(=O)Nc4ccon4)CC3)c2)cc1 [Example 152, 4-[3-(4-Cyano-phenoxy)-benzyl]-piperazine-1-carboxylic acid isoxazol-3-ylamide] |
| > 10000 | > 10000 | O=C(Nc1ccon1)N1CCN(Cc2ccc3c(c2)OCO3)CC1 [Example 143, 4-(1,3-Benzodioxol-5-ylmethyl)-N-isoxazol-3-ylpiperazine-1-carboxamide] |
| 5000 | 270 | O=C(Nc1noc2ccccc12)N1CCN(Cc2cccc(Oc3cnccn3)c2)CC1 [Example 97, N-1,2-Benzisoxazol-3-yl-4-[3-(pyrazin-2-yloxy)benzyl]piperazine-1-carboxamide] |
| > 10000 | > 10000 | CS(=O)(=O)c1ccc(CN2CCN(C(=O)Nc3noc4ccccc34)CC2)cc1 [Example 102, N-1,2-Benzisoxazol-3-yl-4-[4-(methylsulfonyl)benzyl]piperazine-1-carboxamide] |

The remaining lines, values behind:

| SMILES | IC50 (rat FAAH) [nM] | IC50 (FAAH) [nM] |
| --- | --- | --- |
| COc1ccccc1C#Cc1cccc(CN2CCN(C(=O)Nc3noc4ccccc34)CC2)c1 [Example 65, N-1,2-Benzisoxazol-3-yl-4-{3-[(2-methoxyphenyl)-ethynyl]-benzyl}-piperazine-1-carboxamide] | 300 | 395 |
| O=C(Nc1noc2ccccc12)N1CCN(Cc2cccc(C#Cc3ccc4c(c3)OCO4)c2)CC1 [Example 89, N-1,2-Benzisoxazol-3-yl-4-[3-(1,3-benzodioxol-5-ylethynyl)benzyl]-piperazine-1-carboxamide] | 544 | 645 |
| O=C(Nc1cccnn1)N1CCN(Cc2cccc(C#Cc3ccccc3Cl)c2)CC1 [Example 79, 4-{3-[(2-Chlorophenyl)ethynyl]benzyl}-N-pyridazin-3-ylpiperazine-1-carboxamide] | 320 | 46 |
| O=C(Nc1noc2ccccc12)N1CCN(Cc2cccc(C#Cc3ccccc3F)c2)CC1 [Example 66, N-1,2-Benzisoxazol-3-yl-4-{3-[(2-fluorophenyl)ethynyl]-benzyl}-piperazine-1-carboxamide] | 46 | 24 |
| O=C(Nc1noc2ccccc12)N1CCN(Cc2cccc(Oc3ccc(OCC(F)(F)F)cc3)c2)CC1 [Example 35, 4-{3-[4-(2,2,2-Trifluoro-ethoxy)-phenoxy]-benzyl}-piperazine-1-carboxylic acid benzo[d]isoxazol-3-ylamide] | 20 | 5 |
| O=C(Nc1ccon1)N1CCC(Cc2ccc3ccccc3c2)CC1 [Example 11, 4-Naphthalen-2-ylmethyl-piperidine-1-carboxylic acid isoxazol-3-ylamide] | 170 | 1000 |
| O=C(Nc1cccc2nsnc12)N1CCN(Cc2ccc3c(c2)OC(F)(F)O3)CC1 [Example 4, 4-(2,2-Difluoro-benzo[1,3]dioxol-5-ylmethyl)-piperazine-1-carboxylic acid benzo[1,2,5]thiadiazol-4-ylamide trifluoroacetic acid salt] | 260 | 59 |
| O=C(Nc1ccc2ccccc2n1)N1CCC(Cc2ccc3ccccc3c2)CC1 [Example 18, 4-Naphthalen-2-ylmethyl-piperidine-1-carboxylic acid quinolin-2-ylamide trifluoroacetic acid salt] | 9000 | > 10000 |
| O=C(Nc1cccc2nsnc12)N1CCN(Cc2cccc(OC(F)(F)F)c2)CC1 [Example 41, 4-(3-Trifluoromethoxy-benzyl)-piperazine-1-carboxylic acid benzo[1,2,5]thiadiazol-4-ylamide trifluoroacetic acid salt] | 141 | 48 |
| O=C(Nc1noc2ccccc12)N1CCC(Cc2cccc(C(F)(F)F)c2)CC1 [Example 27, 4-(3-Trifluoromethyl-benzyl)-piperidine-1-carboxylic acid benzo[d]isoxazol-3-ylamide] | 47 | 77 |
| O=C(Nc1noc2ccccc12)N1CCN(Cc2cccc(C#Cc3ccccc3Br)c2)CC1 [Example 67, N-1,2-Benzisoxazol-3-yl-4-{3-[(2-bromophenyl)-ethynyl]benzyl}-piperazine-1-carboxamide] | 52 | 6 |
| O=C(Nc1noc2ccccc12)N1CCN(Cc2cccc(C#Cc3cccc(Cl)c3)c2)CC1 [Example 73, N-1,2-Benzisoxazol-3-yl-4-{3-[(3-chlorophenyl)ethynyl]benzyl}-piperazine-1-carboxamide] | 33 | 24 |
| O=C(Nc1cnccn1)N1CCC(Cc2ccc3ccccc3c2)CC1 [Example 10, 4-Naphthalen-2-ylmethyl-piperidine-1-carboxylic acid pyrazin-2-ylamide trifluoroacetic acid salt] | 36 | 244 |
| O=C(Nc1ccc(Cl)nn1)N1CCN(Cc2cccc(Oc3cccc(C(F)(F)F)c3)c2)CC1 [Example 44, 4-[3-(3-Trifluoromethyl-phenoxy)-benzyl]-piperazine-1-carboxylic acid (6-chloro-pyridazin-3-yl)-amide trifluoroacetic acid salt] | 46 | 643 |
| O=C(Nc1ccon1)N1CCN(Cc2cccc(Oc3ccc(Cl)c(Cl)c3)c2)CC1 [Example 47, 4-[3-(3,4-Dichloro-phenoxy)-benzyl]-piperazine-1-carboxylic acid isoxazol-3-ylamide trifluoroacetic acid salt] | 66 | 1140 |
| O=C(Nc1noc2ccccc12)N1CCN(Cc2cccc(OC(F)(F)F)c2)CC1 [Example 52, 4-(3-Trifluoromethoxy-benzyl)-piperazine-1-carboxylic acid benzo[d]isoxazol-3-ylamide trifluoroacetic acid salt] | 322 | 74 |
